In patent US20240182941A1, “XYLOSYLATED STEVIOL GLYCOSIDES AND ENZYMATIC METHODS FOR PRODUCTION” (CARGILL, INCORPORATED, priority 2021, published 2024):
Several values for one entry are separate records, joined by “and”; a condition that tells them apart may be missing. Equal values may be shown once.

Experiments:
UGT76G1 = target: T1, UGT76G1 (Stevia rebaudiana, UniProt Q6VAB4); experiment: SG bioconversion with UDP-xylose using UGT76G1; assay type: biochemical; settings: enzyme UGT76G1, 2 ug protein, 96 hours, 30C, runs 1 and 2
T1 construct: unspecified tag; made in house; host or cells: E. coli
T1 sequence (Q6VAB4 1-458): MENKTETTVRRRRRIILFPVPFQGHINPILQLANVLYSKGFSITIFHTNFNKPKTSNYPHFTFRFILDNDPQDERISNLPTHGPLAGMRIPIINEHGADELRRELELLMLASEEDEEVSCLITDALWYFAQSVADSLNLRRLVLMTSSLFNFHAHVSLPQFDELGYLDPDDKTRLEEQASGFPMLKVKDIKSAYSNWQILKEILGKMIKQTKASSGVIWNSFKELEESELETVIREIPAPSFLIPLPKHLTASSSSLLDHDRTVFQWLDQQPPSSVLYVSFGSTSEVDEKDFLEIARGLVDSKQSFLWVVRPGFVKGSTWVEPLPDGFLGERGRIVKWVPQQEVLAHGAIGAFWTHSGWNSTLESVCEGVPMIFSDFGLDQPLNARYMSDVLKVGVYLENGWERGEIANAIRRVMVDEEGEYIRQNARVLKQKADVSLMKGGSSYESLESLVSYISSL
Method: (§1) Six steviolglycoside (SG) ‘acceptors’ Reb A, B, C, D, M and stevioside were tested using 2 glucosyltransferase enzymes (SEQ ID NO:1 and UGT76G1) known to play key roles in SG biosynthesis in stevia leaves and activated xylose (UDP-xylose).
(§2) UDP-xylose (98.9% purity) and UDP-rhamnose di-sodium salt (95% purity) were purchased from BOC Sciences. The activated sugar donors were prepared to 10 mM concentration with 0.05 M tris buffer and stored according to manufacturers' recommendations before use.
(§3) Enzyme of SEQ ID NO:1 and UGT76G1 enzyme were prepared in E. coli host cells as tagged proteins with expression induced by a chemical inducer. Following induction, the cells were incubated overnight and harvested. The cells were then lysed (either through sonication, mechanical disruption or chemical lysis) and the proteins purified through chromatography and stored frozen at −20C till use. Enzyme activities were confirmed using UDP-glucose in a preliminary test. Frozen enzyme solution was thawed right before use and returned to frozen storage after use.
(§4) SG materials were obtained from various sources with 90%+ purities. All SG materials were prepared at 20 mM with 90% DMSO and stored at ambient temperature. Final DMSO concentration in the reaction mixture was 4.5%.
(§5) Sucrose, previously shown to have a stabilizing effect on the bioconversion reaction, was prepared at 0.1 M with 0.05 M tris buffer.
(§6) Tris (tris(hydroxymethyl)aminomethane) buffer was prepared at 0.05 M, pH 7.3 and contained 3 mM each of MgCl2 and MnCl2 as co-factors.
(§7) Bioconversion reaction was carried out in a total of 100 uL sealed vials containing the Tris buffer, 0.1 μmoles of SG acceptor, 0.2 μmoles of activated sugar donor, 1 μmoles of sucrose and 2 ug protein of the enzymes. To each vial, buffer, sucrose, UDP-sugar donor, and SG acceptor were added in that order before finally the enzymes were added. For each SG donor, a control was included to contain the same amounts of sucrose and enzymes without UDP-sugar donors. After hand mixing, the vials were placed in a temperature-controlled shaker set at 30C and 100 rpm in rotating motion for 96 hours (4 days).
(§8) After 4 days of reaction, 0.9 mL of 80% acetonitrile was added to each vial and the resulting samples were analyzed in LC/MS. Xylose modification of the -19C(O)-β-Glc residue was confirmed.

[1] = cited from earlier work
[2] = tested on: glycosyltransferase polypeptide of SEQ ID NO:1; experiment: SG bioconversion with UDP-xylose using enzyme of SEQ ID NO:1; assay type: biochemical, Oryza sativa Japonica Group; settings: enzyme SEQ ID NO:1, 2 ug protein, 96 hours, 30C, runs 1 and 2
Method: as §1, §2, §3, §4, §5, §6, §7, §8

[3] = tested on: purified protein of SEQ ID NO:1; experiment: Time course of glycosylation of Reb A using SEQ ID NO:1 and activated sugars; assay type: biochemical, Oryza sativa Japonica Group
Method: as §7, §8
The ability of SEQ ID NO:1 to glycosylate Reb A with different activated sugars used at different concentrations was examined, with the reaction products formed being measured over the course of the reaction.
Purified protein of SEQ ID NO:1 was used with UDP-glucose, UDP-xylose, and UDP-rhamnose di-sodium salts, and the reagents and reaction conditions were as described in Example 1.

rebaudioside C [Reb C]
% SG bioconversion with UDP-xylose (UGT76G1): 11.0% and 10.1%
sweetness relative to glucose ([1]; times sweeter than glucose): 30 times

C=C1C[C@@]23CC[C@H]4[C@@](C)(CCC[C@@]4(C)C(=O)O[C@@H]4O[C@H](CO)[C@@H](O)[C@H](O[C@@H]5O[C@H](CO)[C@@H](O)[C@H](O)[C@H]5O)[C@H]4O[C@@H]4O[C@H](CO)[C@@H](O)[C@H](O)[C@H]4O)[C@@H]2CC[C@]1(O[C@@H]1O[C@H](CO)[C@@H](O)[C@H](O[C@@H]2O[C@H](CO)[C@@H](O)[C@H](O)[C@H]2O)[C@H]1O[C@@H]1O[C@H](CO)[C@@H](O)[C@H](O)[C@H]1O)C3 [Reb M, Rebaudioside M]
% SG bioconversion with UDP-xylose (UGT76G1): 0%
% SG bioconversion with UDP-xylose [2]: 0%

C=C1C[C@@]23CC[C@H]4[C@@](C)(CCC[C@@]4(C)C(=O)O[C@@H]4O[C@H](CO)[C@@H](O)[C@H](O)[C@H]4O)[C@@H]2CC[C@]1(O[C@@H]1O[C@H](CO)[C@@H](O)[C@H](O[C@@H]2O[C@H](CO)[C@@H](O)[C@H](O)[C@H]2O)[C@H]1O[C@@H]1O[C@H](CO)[C@@H](O)[C@H](O)[C@H]1O)C3 [Reb A, rebaudioside A]
sweetness relative to sucrose ([1]; times sweeter than sucrose): 250-300 times
glucosylation and xylosylation plateaued after ([3]; 1 mM activated sugars): 20 min
Rhamnosylation using UDP-rhamnose compared with glucosylation and xylosylation ([3]; 2 mM activated sugars): significantly lower
glucosylation and xylosylation plateaued after ([3]; 2 mM activated sugars): 20 min
% Reb A bioconversion ([3]; UDP-Glucose (1 mM), 0 hours): 0%
% Reb A bioconversion ([3]; UDP-Glucose (1 mM), 18 hours): 68.47%
% Reb A bioconversion ([3]; UDP-Glucose (1 mM), 48 hours): 68.6%
% Reb A bioconversion ([3]; UDP-Glucose (1 mM), 96 hours): 68.1%
% Reb A bioconversion ([3]; UDP-Glucose (2 mM), 0 hours): 0%
% Reb A bioconversion ([3]; UDP-Glucose (2 mM), 18 hours): 84.93%
% Reb A bioconversion ([3]; UDP-Glucose (2 mM), 48 hours): 83.9%
% Reb A bioconversion ([3]; UDP-Glucose (2 mM), 96 hours): 82.1%
% Reb A bioconversion ([3]; UDP-Rhamnose (2 mM), 0 hours): 0%
% Reb A bioconversion ([3]; UDP-Rhamnose (2 mM), 18 hours): 14.7%
% Reb A bioconversion ([3]; UDP-Rhamnose (2 mM), 48 hours): 25%
% Reb A bioconversion ([3]; UDP-Rhamnose (2 mM), 96 hours): 30%
% Reb A bioconversion ([3]; UDP-Xylose (1 mM), 0 hours): 0%
% Reb A bioconversion ([3]; UDP-Xylose (1 mM), 18 hours): 60.09%
% Reb A bioconversion ([3]; UDP-Xylose (1 mM), 48 hours): 60.39%
% Reb A bioconversion ([3]; UDP-Xylose (1 mM), 96 hours): 60.66%
% Reb A bioconversion ([3]; UDP-Xylose (2 mM), 0 hours): 0%
% Reb A bioconversion ([3]; UDP-Xylose (2 mM), 18 hours): 83.26%
% Reb A bioconversion ([3]; UDP-Xylose (2 mM), 48 hours): 83.5%
% Reb A bioconversion ([3]; UDP-Xylose (2 mM), 96 hours): 82.33%

C=C1C[C@@]23CC[C@H]4[C@@](C)(CCC[C@@]4(C)C(=O)O)[C@@H]2CC[C@]1(O[C@@H]1O[C@H](CO)[C@@H](O)[C@H](O[C@@H]2O[C@H](CO)[C@@H](O)[C@H](O)[C@H]2O)[C@H]1O[C@@H]1O[C@H](CO)[C@@H](O)[C@H](O)[C@H]1O)C3 [Reb B]
% SG bioconversion with UDP-xylose (UGT76G1): 0%
% SG bioconversion with UDP-xylose [2]: 0%

C=C1C[C@@]23CC[C@H]4[C@@](C)(CCC[C@@]4(C)C(=O)O[C@@H]4O[C@H](CO)[C@@H](O)[C@H](O)[C@H]4O)[C@@H]2CC[C@]1(O[C@@H]1O[C@H](CO)[C@@H](O)[C@H](O)[C@H]1O[C@@H]1O[C@H](CO)[C@@H](O)[C@H](O)[C@H]1O)C3 [Stevioside, stevioside]
% SG bioconversion with UDP-xylose (UGT76G1): 40.5% and 39.0%
% SG bioconversion with UDP-xylose [2]: 85.9% and 90.2%
% SG bioconversion with UDP-xylose ([2]; listed as stevioside): very high conversion

C=C1C[C@@]23CC[C@H]4[C@@](C)(CCC[C@@]4(C)C(=O)O[C@@H]4O[C@H](CO)[C@@H](O)[C@H](O)[C@H]4O[C@@H]4O[C@H](CO)[C@@H](O)[C@H](O)[C@H]4O)[C@@H]2CC[C@]1(O[C@@H]1O[C@H](CO)[C@@H](O)[C@H](O[C@@H]2O[C@H](CO)[C@@H](O)[C@H](O)[C@H]2O)[C@H]1O[C@@H]1O[C@H](CO)[C@@H](O)[C@H](O)[C@H]1O)C3 [Reb D, Rebaudioside D]
% SG bioconversion with UDP-xylose (UGT76G1): 0%
% SG bioconversion with UDP-xylose [2]: ~10%
